Measurements from US11618747B2, “LXR modulators with bicyclic core moiety” (OrsoBio, Inc., priority 2018, dated 2023).

Assays:
[1] = target: T1, full length (FL) LXRα (Homo sapiens, UniProt Q13133); experiment: LXR Gal4 reporter transient transfection assay (FL-M2H Gal4α); format: cell-based; details: HEK293 cells, full length LXRα; read-out: FL-M2H Gal4α (EC50 range)
T1 construct: the full length (FL) proteins of LXRα (amino acids 1-447); NP005684; expressed in transfected cells; host or cells: HEK293
T1 sequence (Q13133 1-447): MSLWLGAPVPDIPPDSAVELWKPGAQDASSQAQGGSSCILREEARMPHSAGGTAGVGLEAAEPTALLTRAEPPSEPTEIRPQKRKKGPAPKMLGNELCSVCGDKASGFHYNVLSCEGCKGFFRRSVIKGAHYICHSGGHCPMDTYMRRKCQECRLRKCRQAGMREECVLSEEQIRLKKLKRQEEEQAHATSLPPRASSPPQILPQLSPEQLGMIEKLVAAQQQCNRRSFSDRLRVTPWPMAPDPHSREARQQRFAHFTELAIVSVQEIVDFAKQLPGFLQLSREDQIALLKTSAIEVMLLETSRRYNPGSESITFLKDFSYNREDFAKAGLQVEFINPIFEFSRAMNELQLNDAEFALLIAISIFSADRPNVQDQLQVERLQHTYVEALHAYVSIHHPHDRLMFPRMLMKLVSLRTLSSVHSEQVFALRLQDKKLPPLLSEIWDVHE
Protocol: (§1) The tested compounds were usually dissolved, tested and stored as 20 mM stock solutions in DMSO. Since sulfonyl acetic acid derivatives tend to decarboxylate under these conditions, these stock solutions were prepared, tested and stored as 20 mM DMSO stock solutions containing 100 mM trifluoroacetic Acid (5 equivalents). Sulfonyl acetic acid derivatives are shelf stable as solid at rt for long time as reported by Griesbrecht et al. (Synlett 2010:374) or Faucher et al. (J. Med. Chem. 2004; 47:18).
(§2) LXR Gal4 Reporter Transient Transfection Assays
(§3) LXRα and LXRβ activity status was determined via detection of interaction with coactivator and corepressor proteins in mammalian two-hybrid experiments (M2H). For this, via transient transfection the full length (FL) proteins of LXRα (amino acids 1-447; NP005684; SEQ ID NO:1) or LXRβ-(amino acids 1-461; NP009052; SEQ ID NO:2) or the ligand-binding domains (LBD) of LXRα (amino acids 155-447 SEQ ID NO:3) or LXRβ (amino acids 156-461; SEQ ID NO:4) were expressed from pCMV-AD (Stratagene) as fusions to the transcriptional activation domain of NFkB. As cofactors, domains of either the steroid receptor coactivator 1 (SRC1; amino acids 552-887; SEQ ID NO:5) or of the corepressor NCoR (amino acids 1906-2312; NP006302; SEQ ID NO:6) were expressed as fusions to the DNA binding domain of the yeast transcription factor GAL4 (from pCMV-BD; Stratagene). Interaction was monitored via activation of a coexpressed Firefly Luciferase Reporter gene under control of a promoter containing repetitive GAL4 response elements (vector pFRLuc; Stratagene). Transfection efficiency was controlled via cotransfection of constitutively active pRL-CMV Renila reniformis luciferase reporter (Promega). HEK293 cells were grown in minimum essential medium (MEM) with 2 mM L-glutamine and Earle's balanced salt solution supplemented with 8.3% fetal bovine serum, 0.1 mM non-essential amino acids, 1 mM sodium pyruvate, at 37° C. in 5% CO2. 3.5×10^4 cells/well were plated in 96-well cell culture plates in growth medium supplemented with 8.3% fetal bovine serum for 16-20 h to ˜90% confluency. For transfection, medium was taken off and LXR and cofactor expressing plasmids as well as the reporter plasmids are added in 30 μL OPTIMEM/well including polyethylene-imine (PEI) as vehicle. Typical amounts of plasmids transfected/well: pCMV-AD-LXR (5 ng), pCMV-BD-cofactor (5 ng), pFR-Luc (100 ng), pRL-CMV (0.5 ng). Compound stocks were prepared in DMSO, prediluted in MEM to a total volume of 120 μL, and added 4 h after addition of the transfection mixture (final vehicle concentration not exceeding 0.2%). Cells were incubated for additional 16 h, lysed for 10 min in 1× Passive Lysis Buffer (Promega) and Firefly and Renilla luciferase activities were measured sequentially in the same cell extract using buffers containing D-luciferine and coelenterazine, respectively. Measurements of luminescence were done in a BMG-luminometer.

[2] = target: T2, full length (FL) LXRβ (Homo sapiens, UniProt P55055, DUP175-175); experiment: LXR Gal4 reporter transient transfection assay (FL-M2H Gal4β); format: cell-based; details: HEK293 cells, full length LXRβ; read-out: FL-M2H Gal4β (EC50 range)
T2 construct: the full length (FL) proteins of LXRα (amino acids 1-447); NP005684; NP009052; expressed in transfected cells; host or cells: HEK293
T2 sequence (P55055 with tags, fused parts or gaps DUP175-175): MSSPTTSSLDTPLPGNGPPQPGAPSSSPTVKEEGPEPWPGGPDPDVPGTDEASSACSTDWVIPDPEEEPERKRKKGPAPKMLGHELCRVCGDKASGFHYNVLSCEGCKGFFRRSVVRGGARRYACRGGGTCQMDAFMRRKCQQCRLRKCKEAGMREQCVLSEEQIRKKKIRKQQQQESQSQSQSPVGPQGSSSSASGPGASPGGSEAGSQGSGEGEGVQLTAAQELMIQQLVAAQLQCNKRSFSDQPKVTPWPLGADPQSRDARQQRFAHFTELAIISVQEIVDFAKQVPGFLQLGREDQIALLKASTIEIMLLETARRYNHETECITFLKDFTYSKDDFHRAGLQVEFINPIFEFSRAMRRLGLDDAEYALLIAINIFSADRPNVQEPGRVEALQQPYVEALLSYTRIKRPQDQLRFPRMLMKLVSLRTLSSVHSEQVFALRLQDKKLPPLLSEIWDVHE
Protocol: as §1, §2, §3

[3] = target: T3, LXRβ ligand-binding domain (Homo sapiens, UniProt P55055, DUP175-175); experiment: TR-FRETβ activity assay (NCoA3 coactivator peptide recruitment); format: biochemical; details: TR-FRET, 1 μM 24(S)-25-epoxycholesterol prestimulation; read-out: FRETβ (EC50 range)
T3 construct: amino acids 156-461; NP009052; made in house; host or cells: E. coli
T3 sequence (P55055 with tags, fused parts or gaps DUP175-175 limits assumed): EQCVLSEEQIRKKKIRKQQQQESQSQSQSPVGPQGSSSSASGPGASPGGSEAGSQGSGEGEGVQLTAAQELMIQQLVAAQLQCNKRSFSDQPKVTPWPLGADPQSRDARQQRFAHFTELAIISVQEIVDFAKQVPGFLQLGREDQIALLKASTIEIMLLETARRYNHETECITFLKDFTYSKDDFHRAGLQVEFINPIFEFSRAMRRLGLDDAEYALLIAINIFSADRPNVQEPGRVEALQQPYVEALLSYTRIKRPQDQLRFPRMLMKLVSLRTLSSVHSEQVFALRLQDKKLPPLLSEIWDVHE
Protocol: as §1
Recombinant GST-LXRPβ ligand-binding domain (LBD; amino acids 156-461; NP009052; SEQ ID NO:4) was expressed in E. coli and purified via gluthatione-sepharose affinity chromatography. N-terminally biotinylated NCoA3 coactivator peptide (SEQ ID NO:7) was chemically synthesized (Eurogentec). Assays were done in 384 well format (final assay volume of 25 μL/well) in a Tris/HCl buffer (pH 6.8) containing KCl, bovine serum albumin, Triton-X-100 and 1 μM 24(S)-25-epoxycholesterol as LXR-prestimulating agonist. Assay buffer was provided and test articles (potential LXR inverse agonists) were titrated to yield final assay concentrations of 50 μM, 16.7 μM, 5.6 μM, 1.9 μM, 0.6 μM, 0.2 μM, 0.07 μM, 0.02 μM, 0.007 μM, 0.002 μM with one vehicle control. Finally, a detection mix was added containing anti GST-Tb cryptate (CisBio; 610SAXLB) and Streptavidin-XL665 (CisBio; 610SAXLB) as fluorescent donor and acceptor, respectively, as well as the coactivator peptide and LXRβ-LBD protein (SEQ ID NO:4). The reaction was mixed thoroughly, equilibrated for 1 h at 4° C. and vicinity of LXRβ and coactivator peptide was detected by measurement of fluorescence in a VictorX4 multiplate reader (PerkinElmer Life Science) using 340 nm as excitation and 615 and 665 nm as emission wavelengths. Assays were performed in triplicates.
Final Assay Concentrations of Components:
240 mM KCl, 1 μg/μL BSA, 0.002% Triton-X-100, […] anti GST-Tb cryptate, 2.5 ng/μL Streptavidin-XL665, coactivator peptide (400 nM), LXRβ protein (530 μg/mL, i.e. 76 nM).

SMILES | EC50 [1] | EC50 [2] | EC50 [3]
O=C(O)c1ccc(-c2cccc(-c3c(-c4cccc5nncn45)c4cc(F)ccc4n3S(=O)(=O)c3ccc(C(F)F)cc3)c2)c(Cl)c1 [11/43] | 100 to 1000 nM | 100 to 1000 nM | 100 to 1000 nM
O=C(O)c1ccc(-c2cccc(-c3c(-c4ncccc4OC(F)F)c4cc(F)ccc4n3S(=O)(=O)c3ccc(C(F)F)cc3)c2)c(Cl)c1 [11/41] | < 100 nM | < 100 nM | < 100 nM
Cc1ccc(S(=O)(=O)n2c(-c3cccc(-c4ccc(C(C(=O)O)N(C)C)cc4Cl)c3)c(-c3ccsc3C#N)c3cc(F)ccc32)cc1 (stereo not drawn) [Example 3, 2-(2-Chloro-3′-(3-(2-cyanothiophen-3-yl)-5-fluoro-1-tosyl-1H-indol-2-yl)-[1,1′-biphenyl]-4-yl)-2-(dimethylamino)acetic Acid] | < 100 nM | < 100 nM | < 100 nM
Cc1ccc(S(=O)(=O)n2c(-c3cccc(-c4ccc(CN)cc4Cl)c3)c(-c3ccsc3C#N)c3cc(F)ccc32)cc1 [2/1] | 100 to 1000 nM | 100 to 1000 nM | 100 to 1000 nM
Cc1ccc(S(=O)(=O)n2c(-c3cccc(-c4ccc5c(C(=O)O)n[nH]c5c4)c3)c(-c3ccsc3C#N)c3cc(F)ccc32)cc1 [12/9] | 100 to 1000 nM | 100 to 1000 nM | 100 to 1000 nM
N#Cc1cccc(C#N)c1-c1c(-c2cccc(N3CC(C(=O)O)C3)c2)n(S(=O)(=O)c2ccc(C(F)F)cc2)c2ccc(F)cc12 [3/67] | 100 to 1000 nM | 100 to 1000 nM | 100 to 1000 nM
CC(C)(O)c1ccc(S(=O)(=O)n2c(-c3cccc(-c4ccc(C(=O)O)cc4Cl)c3)c(-c3ccccc3C#N)c3cc(F)ccc32)cc1 [30/16] | 100 to 1000 nM | 100 to 1000 nM | 1000 to 10000 nM
CN1CC(F)(c2ccccc2-c2c(-c3cccc(-c4ccc(C(=O)O)cc4Cl)c3)n(S(=O)(=O)c3ccc(C(F)F)cc3)c3ccc(F)cc23)C1 [3/62] | 100 to 1000 nM | < 100 nM | 100 to 1000 nM
N#Cc1sccc1-c1c(-c2cccc(N3CC(C(=O)O)C3)c2)n(S(=O)(=O)c2ccc(C(F)(F)F)cc2)c2ccc(F)cc12 [3/34] | 100 to 1000 nM | < 100 nM | 100 to 1000 nM
N#Cc1ccccc1-c1c(-c2cccc(-c3ccc(C(=O)O)c4c3OCO4)c2)n(S(=O)(=O)c2ccc(C(F)F)cc2)c2ccc(F)cc12 [11/28] | < 100 nM | < 100 nM | < 100 nM
O=C(O)C1CC1c1cccc(-c2c(-c3c(Cl)cccc3Cl)c3cc(F)ccc3n2S(=O)(=O)c2ccc(C(F)F)cc2)c1 (stereo not drawn) [11/69] | < 100 nM | < 100 nM | < 100 nM
N#Cc1cccc(C#N)c1-c1c(-c2cccc(-c3ccc(C(=O)O)c(F)c3F)c2)n(S(=O)(=O)c2ccc(C(F)F)cc2)c2ccc(F)cc12 [11/52] | < 100 nM | < 100 nM | < 100 nM
Cc1ccc(S(=O)(=O)n2c(-c3cccc(-c4cccc(S(C)(=O)=Nc5nnn[nH]5)c4)c3)c(-c3ccsc3C#N)c3cc(F)ccc32)cc1 (stereo not drawn) [37/1] | 100 to 1000 nM | 100 to 1000 nM | 100 to 1000 nM
N#Cc1cccc(C#N)c1-c1c(-c2cccc(-c3ccc(C(=O)O)cc3Cl)c2)n(S(=O)(=O)C2CC3CCC2C3)c2ccc(F)cc12 (stereo not drawn) [11/66] | < 100 nM | < 100 nM | 100 to 1000 nM
N#Cc1sccc1-c1c(-c2cccc(N3CCC(C(=O)O)CC3)c2)n(S(=O)(=O)c2ccc(C(F)F)cc2)c2ccc(F)cc12 [3/60] | < 100 nM | < 100 nM | 100 to 1000 nM
Cc1ccc(S(=O)(=O)n2c(-c3cccc(C45CC(C(=O)O)(C4)C5)c3)c(-c3ccsc3C#N)c3ccccc32)cc1 [5/2] | 100 to 1000 nM | 100 to 1000 nM | 100 to 1000 nM
Cc1ccc(S(=O)(=O)n2c(-c3cccc(-c4ccc(C(=O)O)cc4Cl)c3)c(-c3cc(C)ccc3C#N)c3cc(F)ccc32)cc1 [11/5] | < 100 nM | < 100 nM | < 100 nM
N#Cc1cncc(C#N)c1-c1c(-c2cccc(-c3ccc(C(=O)O)cc3Cl)c2)n(S(=O)(=O)c2ccc(C(F)F)cc2)c2ccc(F)cc12 [11/67] | < 100 nM | < 100 nM | 100 to 1000 nM
O=C(O)c1ccc(-c2cccc(-c3c(-c4ccccc4C4COC4)c4cnccc4n3S(=O)(=O)c3ccc(C(F)F)cc3)c2)c(Cl)c1 [8/3] | 100 to 1000 nM | < 100 nM | 100 to 1000 nM
N#Cc1cccc(F)c1-c1c(-c2cccc(-c3ccc(C(=O)O)cc3Cl)c2)n(S(=O)(=O)c2ccc(C(F)F)cc2)c2ccc(F)cc12 [11/34] | < 100 nM | < 100 nM | < 100 nM
